The NIST ThermoML archive (doi:10.1016/j.jct.2012.03.013)

Conditions: Liquid; for speed of sound: Pulse-echo method

OCCCCO [1,4-butanediol]
Conditions	mass density [kg/m3]
293.15 K, 100 kPa, Acoustic method	1015.74
293.15 K, 101.33 kPa, Vibrating tube method	1015.74
298.15 K, 100 kPa, Acoustic method	1012.78
298.15 K, 101.33 kPa, Vibrating tube method	1012.78
298.15 K, 10000 kPa, Acoustic method	1016.99
298.15 K, 20000 kPa, Acoustic method	1021.1
298.15 K, 30000 kPa, Acoustic method	1025.06
298.15 K, 40000 kPa, Acoustic method	1028.89
303.14 K, 101.33 kPa, Vibrating tube method	1009.78
303.15 K, 100 kPa, Acoustic method	1009.77
303.15 K, 10000 kPa, Acoustic method	1014.06
303.15 K, 20000 kPa, Acoustic method	1018.23
303.15 K, 30000 kPa, Acoustic method	1022.25
303.15 K, 40000 kPa, Acoustic method	1026.13
303.15 K, 50000 kPa, Acoustic method	1029.88
303.15 K, 60000 kPa, Acoustic method	1033.51
303.15 K, 70000 kPa, Acoustic method	1037.04
303.15 K, 80000 kPa, Acoustic method	1040.47
303.15 K, 90000 kPa, Acoustic method	1043.8
308.15 K, 100 kPa, Acoustic method	1006.76
308.15 K, 101.33 kPa, Vibrating tube method	1006.76
308.15 K, 10000 kPa, Acoustic method	1011.12
308.15 K, 20000 kPa, Acoustic method	1015.35
308.15 K, 30000 kPa, Acoustic method	1019.42
308.15 K, 40000 kPa, Acoustic method	1023.35
308.15 K, 50000 kPa, Acoustic method	1027.15
308.15 K, 60000 kPa, Acoustic method	1030.83
308.15 K, 70000 kPa, Acoustic method	1034.41
308.15 K, 80000 kPa, Acoustic method	1037.87
308.15 K, 90000 kPa, Acoustic method	1041.25
308.15 K, 100000 kPa, Acoustic method	1044.53
313.14 K, 101.33 kPa, Vibrating tube method	1003.72
313.15 K, 100 kPa, Acoustic method	1003.73
313.15 K, 10000 kPa, Acoustic method	1008.15
313.15 K, 20000 kPa, Acoustic method	1012.44
313.15 K, 30000 kPa, Acoustic method	1016.57
313.15 K, 40000 kPa, Acoustic method	1020.56
313.15 K, 50000 kPa, Acoustic method	1024.41
313.15 K, 60000 kPa, Acoustic method	1028.14
313.15 K, 70000 kPa, Acoustic method	1031.76
313.15 K, 80000 kPa, Acoustic method	1035.27

Conditions	speed of sound [m/s]
298.07 K, 15200 kPa	1649.2
298.07 K, 30390 kPa	1693.3
298.08 K, 45590 kPa	1735.4
298.11 K, 100 kPa	1602.1
298.15 K, 101.33 kPa	1601.8
303.15 K, 101.33 kPa	1589.9
303.15 K, 60790 kPa	1763.6
303.15 K, 70920 kPa	1789.3
303.15 K, 75990 kPa	1801.9
303.15 K, 91180 kPa	1837.8
303.16 K, 30390 kPa	1682.4
303.16 K, 45590 kPa	1724.1
303.16 K, 50660 kPa	1738
303.17 K, 100 kPa	1590.2
303.17 K, 15200 kPa	1637.6
308.14 K, 15200 kPa	1626.6
308.14 K, 30390 kPa	1671.6
308.14 K, 45590 kPa	1713.7
308.14 K, 75990 kPa	1792
308.14 K, 91180 kPa	1828.2
308.14 K, 101320 kPa	1851.7
308.15 K, 100 kPa	1578.4
308.15 K, 101.33 kPa	1578.5
308.15 K, 60790 kPa	1753.3
313.09 K, 15200 kPa	1614.6
313.09 K, 30390 kPa	1660.5
313.1 K, 45590 kPa	1703
313.1 K, 60790 kPa	1743.5
313.1 K, 75990 kPa	1782
313.1 K, 91180 kPa	1819
313.1 K, 101320 kPa	1842.1
313.12 K, 100 kPa	1567
313.15 K, 101.33 kPa	1566.7
